Assay results reported in publication PMC7366380, “Discovery of a Potent and Selective Covalent Inhibitor and Activity-Based Probe for the Deubiquitylating Enzyme UCHL1, with Antifibrotic Activity” (Journal of the American Chemical Society, 2020).
Values joined by “and” are separate entries in the source; they are usually repeats but may differ in a detail not shown here. Equal entries are not always repeated. Blank lines part the entries; values can stand above or below the compound they belong to.

What was measured:
Experiment in all cases: In-cell proteome-wide competitive ABPP, HEK293: other DUBs and proteins
[1] = biological target: T1, DUBs and other proteins in HEK293 cells (Homo sapiens, UniProt P40818); conditions: for Log2 reporter intensity values: USP8: competition with ABP 2, DMSO substract (FC), replicates A-B; for Log2 reporter intensity values: USP8, DMSO subtracted
T1 sequence (P40818 1-1118): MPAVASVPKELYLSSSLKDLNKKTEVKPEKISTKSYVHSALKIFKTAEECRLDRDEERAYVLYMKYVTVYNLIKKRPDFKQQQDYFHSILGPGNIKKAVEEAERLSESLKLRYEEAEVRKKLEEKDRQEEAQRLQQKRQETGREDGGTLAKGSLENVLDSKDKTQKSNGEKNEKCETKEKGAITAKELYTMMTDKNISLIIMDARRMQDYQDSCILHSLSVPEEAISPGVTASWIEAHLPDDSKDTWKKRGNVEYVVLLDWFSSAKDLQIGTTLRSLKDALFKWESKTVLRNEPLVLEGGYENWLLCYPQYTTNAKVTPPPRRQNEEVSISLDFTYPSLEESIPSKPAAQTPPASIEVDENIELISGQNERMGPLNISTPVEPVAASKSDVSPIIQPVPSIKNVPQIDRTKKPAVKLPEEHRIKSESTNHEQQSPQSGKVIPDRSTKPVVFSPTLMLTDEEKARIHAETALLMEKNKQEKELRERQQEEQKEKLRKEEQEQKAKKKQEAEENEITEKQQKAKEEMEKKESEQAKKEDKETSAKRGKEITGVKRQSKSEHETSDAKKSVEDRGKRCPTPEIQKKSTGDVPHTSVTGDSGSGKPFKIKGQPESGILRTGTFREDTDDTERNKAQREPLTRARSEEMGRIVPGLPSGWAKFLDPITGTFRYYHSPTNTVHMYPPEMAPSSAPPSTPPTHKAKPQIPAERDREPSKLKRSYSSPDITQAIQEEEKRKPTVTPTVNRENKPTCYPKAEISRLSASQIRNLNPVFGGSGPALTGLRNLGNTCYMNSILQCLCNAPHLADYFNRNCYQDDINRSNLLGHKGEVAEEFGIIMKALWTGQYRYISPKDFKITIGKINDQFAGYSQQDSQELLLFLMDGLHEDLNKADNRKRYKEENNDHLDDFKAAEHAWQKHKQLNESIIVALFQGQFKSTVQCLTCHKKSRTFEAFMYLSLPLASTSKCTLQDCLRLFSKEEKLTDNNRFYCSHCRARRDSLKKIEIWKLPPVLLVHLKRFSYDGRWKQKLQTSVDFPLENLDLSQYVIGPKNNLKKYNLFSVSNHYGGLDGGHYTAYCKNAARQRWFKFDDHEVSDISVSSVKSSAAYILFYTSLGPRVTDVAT

[2] = biological target: DUBs and other proteins in HEK293 cells (Homo sapiens, UniProt Q14694); conditions: replicates A-C; for Log2 reporter intensity values: USP10: competition with ABP 2, DMSO substract (FC); for Log2 reporter intensity values: USP10, DMSO subtracted
[3] = biological target: T2, DUBs and other proteins in HEK293 cells (Homo sapiens, UniProt P51665); conditions: replicates A-C; for Log2 reporter intensity values: PSMD7: DMSO substract (FC); for Log2 reporter intensity values: PSMD7, DMSO subtracted
T2 sequence (P51665 1-324): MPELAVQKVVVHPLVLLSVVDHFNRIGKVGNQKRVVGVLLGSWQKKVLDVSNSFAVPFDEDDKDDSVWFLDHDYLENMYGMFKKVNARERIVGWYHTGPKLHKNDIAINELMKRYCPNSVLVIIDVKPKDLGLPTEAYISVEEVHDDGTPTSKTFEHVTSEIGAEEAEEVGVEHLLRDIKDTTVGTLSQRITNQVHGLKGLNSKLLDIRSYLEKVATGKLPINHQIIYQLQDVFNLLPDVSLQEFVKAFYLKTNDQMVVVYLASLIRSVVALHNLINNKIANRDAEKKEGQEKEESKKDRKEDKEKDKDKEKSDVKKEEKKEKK

[4] = biological target: T3, DUBs and other proteins in HEK293 cells (Homo sapiens, UniProt P45974); conditions: replicates A-C; for Log2 reporter intensity values: USP5: DMSO substract (FC); for Log2 reporter intensity values: USP5, DMSO subtracted
T3 sequence (P45974 1-858): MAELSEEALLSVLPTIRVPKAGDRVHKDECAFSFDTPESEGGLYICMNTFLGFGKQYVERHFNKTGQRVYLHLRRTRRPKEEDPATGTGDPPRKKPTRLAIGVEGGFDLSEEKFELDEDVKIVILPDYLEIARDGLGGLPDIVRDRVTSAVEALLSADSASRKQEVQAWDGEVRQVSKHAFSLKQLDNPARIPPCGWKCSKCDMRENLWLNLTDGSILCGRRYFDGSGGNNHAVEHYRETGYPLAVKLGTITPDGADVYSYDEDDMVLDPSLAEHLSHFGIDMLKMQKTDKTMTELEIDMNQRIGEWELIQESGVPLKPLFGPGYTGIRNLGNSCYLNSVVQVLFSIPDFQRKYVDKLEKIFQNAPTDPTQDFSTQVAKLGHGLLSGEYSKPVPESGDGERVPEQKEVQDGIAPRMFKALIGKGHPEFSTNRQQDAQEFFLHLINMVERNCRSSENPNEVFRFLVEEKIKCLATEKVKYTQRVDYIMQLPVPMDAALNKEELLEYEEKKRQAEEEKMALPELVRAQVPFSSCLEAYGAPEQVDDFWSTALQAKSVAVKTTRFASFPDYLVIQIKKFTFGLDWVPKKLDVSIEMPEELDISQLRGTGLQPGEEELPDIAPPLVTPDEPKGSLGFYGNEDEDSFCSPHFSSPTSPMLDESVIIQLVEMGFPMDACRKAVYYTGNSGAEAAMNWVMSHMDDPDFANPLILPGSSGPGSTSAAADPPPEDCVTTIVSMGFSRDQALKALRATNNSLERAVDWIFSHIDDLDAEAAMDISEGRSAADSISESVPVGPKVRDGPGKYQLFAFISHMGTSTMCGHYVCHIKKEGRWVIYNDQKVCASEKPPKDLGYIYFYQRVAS

[5] = 1 at 1 μM, competition with ABP 2
[6] = 1 at 4 μM, competition with ABP 2
[7] = LDN at 5 μM, competition with ABP 2
[8] = LDN at 25 μM, competition with ABP 2

DUBs and other proteins in HEK293 cells (Homo sapiens, UniProt Q14694), sequence (Q14694 whole entry): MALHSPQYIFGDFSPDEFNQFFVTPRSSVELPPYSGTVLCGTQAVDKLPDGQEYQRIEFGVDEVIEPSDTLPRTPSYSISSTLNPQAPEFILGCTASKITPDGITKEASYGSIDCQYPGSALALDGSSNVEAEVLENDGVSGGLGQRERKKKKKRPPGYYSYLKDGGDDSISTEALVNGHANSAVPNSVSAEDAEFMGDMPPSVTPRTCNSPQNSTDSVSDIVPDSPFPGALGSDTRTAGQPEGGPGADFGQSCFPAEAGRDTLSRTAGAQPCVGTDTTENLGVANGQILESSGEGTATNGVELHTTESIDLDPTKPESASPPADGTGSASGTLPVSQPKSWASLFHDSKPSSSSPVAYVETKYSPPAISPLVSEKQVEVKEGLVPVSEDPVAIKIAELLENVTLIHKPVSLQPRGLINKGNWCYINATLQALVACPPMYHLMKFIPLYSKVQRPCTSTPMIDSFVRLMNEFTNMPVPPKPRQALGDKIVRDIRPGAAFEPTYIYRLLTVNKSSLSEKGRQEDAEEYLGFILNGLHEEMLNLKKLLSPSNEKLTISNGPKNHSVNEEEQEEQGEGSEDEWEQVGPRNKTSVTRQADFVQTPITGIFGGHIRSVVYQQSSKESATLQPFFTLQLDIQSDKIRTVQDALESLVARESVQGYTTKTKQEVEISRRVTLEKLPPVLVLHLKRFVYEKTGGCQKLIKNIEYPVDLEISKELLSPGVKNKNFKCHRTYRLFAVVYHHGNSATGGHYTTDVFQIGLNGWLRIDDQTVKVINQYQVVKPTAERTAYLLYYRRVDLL

Log2 reporter intensity values: USP8 ([1]; 1 at 1 μM): 0.9851 and 0.9804
Log2 reporter intensity values: USP8 ([1]; 1 at 4 μM): 1.1 and 1.102
Log2 reporter intensity values ([1]; 1_1 μM, replicates A-B (C NaN)): -0.01738 and -0.02201
Log2 reporter intensity values ([1]; 1_4 μM, replicates A-B (C NaN)): 0.09749 and 0.0991
Log2 reporter intensity values ([1]; 1 at 1 μM, replicates A-C): -0.0217 and -0.0285
Log2 reporter intensity values ([1]; 1 at 4 μM, replicates A-C): 0.1374 and 0.1395
Log2 reporter intensity values: USP10 ([2]; 1 at 1 μM): 0.8161 and 0.9562 and 0.9573
Log2 reporter intensity values: USP10 ([2]; 1 at 4 μM): 0.9286 and 0.9489 and 0.874
Log2 reporter intensity values ([2]; 1_1 μM): -0.1848 and -0.04476 and -0.04368
Log2 reporter intensity values ([2]; 1_4 μM): -0.07234 and -0.05211 and -0.1269
Log2 reporter intensity values ([2]; 1 at 1 μM): -0.2931 and -0.06461 and -0.06297
Log2 reporter intensity values ([2]; 1 at 4 μM): -0.1068 and -0.07574 and -0.1942
Log2 reporter intensity values: PSMD7 [3, 5]: 1.13 and 1.005 and 1.053
Log2 reporter intensity values: PSMD7 [3, 6]: 1.07 and 1.047 and 1.231
Log2 reporter intensity values ([3]; 1_1 μM): 0.1278 and 0.002507 and 0.05011
Log2 reporter intensity values ([3]; 1_4 μM): 0.06753 and 0.04399 and 0.2288
Log2 reporter intensity values ([3]; 1 at 1 μM): 0.1768 and 0.007299 and 0.07406
Log2 reporter intensity values ([3]; 1 at 4 μM): 0.09774 and 0.06565 and 0.3003
Log2 reporter intensity values: USP5 [4, 5]: 0.9731 and 0.9825 and 0.9558
Log2 reporter intensity values: USP5 [4, 6]: 0.9723 and 0.9393 and 0.9714
Log2 reporter intensity values ([4]; 1_1 μM): -0.02722 and -0.01785 and -0.04454
Log2 reporter intensity values ([4]; 1_4 μM): -0.02801 and -0.06107 and -0.02897
Log2 reporter intensity values ([4]; 1 at 1 μM): -0.03934 and -0.0255 and -0.06525
Log2 reporter intensity values ([4]; 1 at 4 μM): -0.04051 and -0.09041 and -0.04193
Compound: N#CN1CCC[C@H]1C(=O)N1CCc2c(-c3c[nH]c4ncccc34)cccc21 [Compound 1]

Compound: CC(=O)O/N=C1\C(=O)N(Cc2cc(Cl)ccc2Cl)c2ccc(Cl)cc21 [LDN]
Log2 reporter intensity values: USP8 ([1]; LDN at 5 μM): 1.057 and 1.015
Log2 reporter intensity values: USP8 ([1]; LDN at 25 μM): 1.052 and 0.9465
Log2 reporter intensity values ([1]; LDN at 5 μM, replicates A-C): 0.08034 and 0.0217
Log2 reporter intensity values ([1]; LDN at 25 μM, replicates A-C): 0.07275 and -0.07932
Log2 reporter intensity values ([1]; LDN_5 μM, replicates A-B (C NaN)): 0.05482 and 0.0127
Log2 reporter intensity values ([1]; LDN_25 μM, replicates A-B (C NaN)): 0.04927 and -0.05595
Log2 reporter intensity values: USP10 ([2]; LDN at 5 μM): 0.9581 and 0.8382 and 0.9082
Log2 reporter intensity values: USP10 ([2]; LDN at 25 μM): 0.9726 and 0.903 and 0.8841
Log2 reporter intensity values ([2]; LDN at 5 μM): -0.06168 and -0.2546 and -0.1389
Log2 reporter intensity values ([2]; LDN at 25 μM): -0.04009 and -0.1472 and -0.1778
Log2 reporter intensity values ([2]; LDN_5 μM): -0.04282 and -0.1627 and -0.09278
Log2 reporter intensity values ([2]; LDN_25 μM): -0.02837 and -0.09796 and -0.1169
Log2 reporter intensity values: PSMD7 [3, 7]: 1.218 and 1.097 and 1.111
Log2 reporter intensity values: PSMD7 [3, 8]: 1.26 and 1.205 and 1.158
Log2 reporter intensity values ([3]; LDN at 5 μM): 0.2849 and 0.1342 and 0.1516
Log2 reporter intensity values ([3]; LDN at 25 μM): 0.3338 and 0.2689 and 0.2118
Log2 reporter intensity values ([3]; LDN_5 μM): 0.2157 and 0.09493 and 0.1083
Log2 reporter intensity values ([3]; LDN_25 μM): 0.2577 and 0.2023 and 0.1556
Log2 reporter intensity values: USP5 [4, 7]: 1.037 and 0.9788 and 0.9532
Log2 reporter intensity values: USP5 [4, 8]: 1.021 and 0.9648 and 0.9864
Log2 reporter intensity values ([4]; LDN at 5 μM): 0.05306 and -0.03094 and -0.06922
Log2 reporter intensity values ([4]; LDN at 25 μM): 0.02936 and -0.0517 and -0.01971
Log2 reporter intensity values ([4]; LDN_5 μM): 0.03714 and -0.02154 and -0.04717
Log2 reporter intensity values ([4]; LDN_25 μM): 0.02024 and -0.03553 and -0.01389

Log2 reporter intensity values: PSMD7 ([3]; 20 nM ABP 2 alone): 0.8915
Log2 reporter intensity values ([3]; 20 nM ABP 2): 0.1122 and -0.1657 and 0.02 and 0.07832
Log2 reporter intensity values: USP5 ([4]; 20 nM ABP 2 alone): 0.9172 and 0.9432 and 0.9583
Compound: C#Cc1cnc2[nH]cc(-c3cccc4c3CCN4C(=O)[C@@H]3CCCN3C#N)c2c1 [Compound 2]
Log2 reporter intensity values ([4]; 20 nM ABP 2): -0.1247 and -0.08438 and -0.06148 and -0.08313 and -0.05714
